We go through one compound from patent US6608055B2, “Crystalline anticholinergic, processes for preparing it and its use for preparing a pharmaceutical composition” (Boehringer Ingelheim Pharma KG, priority 2001, dated 2003).

This data set can be described thus: storage of the anhydrous form at controlled relative humidity (preservation of anhydrous state). The class given is physicochemical. The following applies: coarse crystals, r.h. = relative humidity. The procedure: Alternatively to the drying step at elevated temperature under reduced pressure described above, the anhydrous form may also be prepared by storing the crystalline tiotropium bromide monohydrate over a drying agent, preferably over dried silica gel at ambient temperature for a period of 12 to 96 hours, preferably 18 to 72 hours, most preferably at least 24 hours. The anhydrous form thus obtained should be stored more or less dry, depending on the particle size, to preserve its anhydrous state. In the case of coarse crystals of anhydrous tiotropium bromide, which may be prepared for example as described above, storage at <75% r.h. (relative humidity) is sufficient to maintain the anhydrous state. In the micronised state, i.e. where the material has a much larger surface area, water may even be absorbed at lower humidity levels. In order to maintain the anhydrous form in the micronised state, it is therefore advisable to store the anhydrous form of tiotropium bromide over dried silica gel until it is further processed to form the desired inhalable powder containing suitable excipients (e.g. lactose) in addition to tiotropium bromide.

For the compound `C[N+]1(C)C2C[C@H](OC(=O)C(O)(c3cccs3)c3cccs3)CC1[C@H]1OC21` (stereo partly drawn) [anhydrous tiotropium bromide, (1α,2β,4β,5α,7β)-7-[(hydroxydi-2-thienylacetyl)oxy]-9,9-dimethyl-3-oxa-9-azoniatricyclo[3.3.1.0^2,4]nonane-bromide], the “relative humidity of storage sufficient to maintain the anhydrous state” value is given as less than 75 % r.h.
